For one data set, the system named is COS-1 cells. As to the kind of experiment: Gene expression level by luciferase assay, lipid/pDNA complex. The format is cell-based. The following applies: for Gene expression level: COS-1, DOPE/cationic lipid liposome, 200 ng DNA, 24 hours. The method, then: (§1) Use of a cationic lipid as a reagent for gene introduction was studied. Cationic liposomes consisting of a mixed membrane constituted by DOPE as a membrane-fusogenic lipid and a cationic lipid were prepared. 15 mg of the mixed lipid (the introduction amount of cationic lipid membrane in mixed membrane was adjusted to 20, 30, 40 or 50 mol %) was dispersed in 1.5 mL of the HEPES buffer solution (pH 7.4), and a liposome having the particle size of about 100 nm was prepared using a probe-type ultrasonic apparatus. The particle size was measured by the dynamic light scattering method. In the table, A represents a cationic lipid 2 and a cationic lipid 6; B represents a cationic lipid 5; C represents a cationic lipid 7; and D represents a cationic lipid 8.
In order to evaluate the gene transfer ability of the prepared cationic liposomes, the gene expression level was calculated based on luciferase assay using an luciferase-encoding plasmid vector (phRL-TK) (n=3).
The experimental protocol was as follows. The amount of transfected DNA was set to 200 ng in all the cases. In 100 μL of medium, COS-1 cells (1×10^4 cells/well) were seeded on a 96-well plate, and cultured in a CO2 incubator for 12 hours. A complex of lipid and plasmid DNA (lipid/pDNA complex) was allowed to stand for minutes, and diluted with the medium to be added to the cells. After that, culture in the CO2 incubator was carried out for 24 hours. The medium was removed, and washing with PBS(−) was carried out twice. Then, a dissolution buffer diluted 5-fold with MilliQ water was added to the medium (25 μl/well), and the cells were solubilized. The obtained solution was mildly stirred and allowed to stand at room temperature for minutes. To 20 μL of the cell solution, 100 μL of the coelenterazine solution was added, and the luminescence intensity was measured using a luminometer.

The nature of data set [1]: Particle size of liposomes by dynamic light scattering. To be noted: DOPE mixed membrane, in nm. Format: physicochemical. On the procedure:
(§2) The particle size and the ζ potential of the prepared cationic liposomes were measured. In the measurement of the particle size, the particle size in the case of the lipid concentration of 30 μM was measured by the dynamic light scattering method. In the measurement of the ζ potential, a liposome dispersion was diluted with a HEPES buffer solution (pH 7.4), and the ζ potential in the case of 30 μM was measured.
as §1

The next data set in a line: ζ potential of liposomes. The format is physicochemical. The following applies: for ζ potential: DOPE mixed membrane, in mV. On the procedure: As evaluation of physical properties, the quantification of lipid was carried out by means of quantification of choline-type phospholipid, and quantification of encapsulated protein was carried out by means of HPLC (220 nm). In addition, the particle size and ζ potential were measured by the dynamic light scattering method (BECKMAN COULTER, N4 PLUS). […]
as §2
Next, the ζ potential of the prepared cationic liposomes was measured. A to D in the table was the same as Table 9.

Five molecules from patent US8338643B2, “Reagent for introduction of protein or gene” (Waseda University, priority 2006, dated 2012) can be followed below.

On to `CCCCCCCCCCCCCCCCOC(=O)CCC(NC(=O)C(N)CCCCN)C(=O)OCCCCCCCCCCCCCCCC` (stereo not drawn) [Compound 2, Lys-Glu2C16], for which the Gene expression level entry in the data set with COS-1 cells is on record as “the gene expression level was low”.
On to `CCCCCCCCCCCCCCCCOC(=O)CCC(NC(=O)CCCCCNC(=O)C(N)CCCCN)C(=O)OCCCCCCCCCCCCCCCC` (stereo not drawn) [Compound 5, Lys-(CH2)5-Glu2C16], for which the Particle size is 99 ± 45 in data set [1] (cationic lipid 20 mol %), 95 ± 46 in data set [1] (cationic lipid 30 mol %), 91 ± 43 in data set [1] (cationic lipid 40 mol %) and 100 ± 47 in data set [1] (cationic lipid 50 mol %). Also, the ζ potential in the data set “ζ potential of liposomes” (cationic lipid 20 mol %) stood at 28 ± 3.4; in “ζ potential of liposomes” (cationic lipid 30 mol %), 37 ± 0.2; in “ζ potential of liposomes” (cationic lipid 40 mol %), 42 ± 3.0; in “ζ potential of liposomes” (cationic lipid 50 mol %) it was 41 ± 1.3. Also, in the data set with COS-1 cells, the Gene expression level result is recorded as “the expression level was lower than that of the spacer-contained lipid 6”.
Consider Lys-(CH2)3-Glu2C16 [Compound 6], for which the Gene expression level result in the data set with COS-1 cells was “a high expression efficiency was obtained”. Further, in the data set with COS-1 cells (DOPE/lipid 6=6/4 (mol ratio), cationic liposome/plasmid DNA 10/1 (w/w)), the “Gene expression efficiency at best conditions” value is listed as “The highest expression efficiency was obtained”.
In the case of Lys-(CH2)7-Glu2C16 [Compound 7], the Particle size in data set [1] (cationic lipid 20 mol %) came out at 88 ± 42; in data set [1] (cationic lipid 30 mol %), 98 ± 37; in data set [1] (cationic lipid 40 mol %), 86 ± 40; in data set [1] (cationic lipid 50 mol %), 100 ± 48. Moreover, the ζ potential is reported as 34 ± 42 in the data set “ζ potential of liposomes” (cationic lipid 20 mol %), 40 ± 3.3 in “ζ potential of liposomes” (cationic lipid 30 mol %), 49 ± 3.3 in the data set “ζ potential of liposomes” (cationic lipid 40 mol %) and 37 ± 3.1 in “ζ potential of liposomes” (cationic lipid 50 mol %). The Gene expression level result in the data set on COS-1 cells is given as “the gene expression level was low”.
For the molecule Lys-(CH2)11-Glu2C16 [Compound 8], the Particle size in data set [1] (cationic lipid 20 mol %) turned out to be 95 ± 36; in data set [1] (cationic lipid 30 mol %), 113 ± 50; in data set [1] (cationic lipid 40 mol %) it was 80 ± 39; in data set [1] (cationic lipid 50 mol %) it was 95 ± 36. For the same molecule, in the data set “ζ potential of liposomes” (DOPE mixed membrane liposomes), the “ζ potential, comparison between lipids” value is “slightly lower than that of the lipid 7”. The ζ potential is listed as 30 ± 1.2 in the data set “ζ potential of liposomes” (cationic lipid 20 mol %), 37 ± 0.8 in the data set “ζ potential of liposomes” (cationic lipid 30 mol %), 37 ± 3.1 in “ζ potential of liposomes” (cationic lipid 40 mol %) and 44 ± 1.6 in “ζ potential of liposomes” (cationic lipid 50 mol %).
